Experimental data published in patent US20220040136A1, “TREATMENT OF VULVOVAGINAL DISORDERS” (University of Rochester, priority 2018, published 2022).

Columns and labels:
human vulvar fibroblasts = experiment: In vitro LPV model: SPM pre-treatment of patient vestibular/vulvar fibroblasts before inflammatory stimulation, IL-6 and PGE2 by ELISA/EIA; format: cell-based; conditions: pre-treated 10 hours with 5 nM SPM, vestibular and external vulvar fibroblasts
Procedure: FIGS. 5A, 5B, 5C, and 5D are a set of diagrams showing that PGE2 and IL-6 production is reduced by SPMs. Patient vestibular or vulvar fibroblasts were pre-treated for 10 hours with Lipoxin A4 (LxA4), Resolvin D2 (RvD2), (7R)-Maresin 1 or epi(7S)-Maresin 1 at a 5 nM concentration, then activated with IL-1β (Panel A; 10 pg/ml) or bradykinin (Panel B; 100 nM) for 48 hr. Culture media were collected and analyzed for PGE2 (Panel A) or IL-6 (Panel B) content. Patient fibroblasts were also activated first with IL-1β for 30 min then treated with 5 nM (7R)-Maresin 1 or LXA4 for 18 hours, followed by a booster dose for 6 hr. Culture media were collected and analyzed for PGE2 (Panel C) or IL-6 (Panel D) content. Mean+/−SEM of n=3, ANOVA *p<0.05 vs. activation only (no SPM).
FIGS. 23A and 23B are diagrams showing six SPMs are effective in reducing IL-6 and PGE2 production from fibroblasts when used as a pre-treatment and post-treatment. Patient vestibular or vulvar fibroblasts were pre-treated for 18 h with Resolvin D3 (RvD3), Resolvin D4 (RvD4), Resolvin D5 (RvD5), Resolvin E1 (RvE1), Protectin D1 or Protectin DX at a 5 nM concentration, pre-treated again for 30 min prior to activation, then activated with 10 pg/ml IL-1β for 48 h with a booster SPM dose at 24 h. Culture media were collected and analyzed for IL-6 (Panel A) and PGE2 (Panel B). Mean+/−SEM of n=6 (two cases run in triplicate), ANOVA *p<0.05 vs. activation only (IL-1b).
In this example, a fibroblast-based in vitro LPV model was established. Briefly, fibroblast strains were obtained from two regions (FIG. 1) of the lower genital tract of localized provoked vulvodynia (LPV) cases and pain-free controls in the manner described in Falsetta et al. Am J Obstet Gynecol 2015, vol. 213, pp. 38 e1-12 and Foster et al., Pain 2015, vol. 156, pp. 386-96.
Over 30 paired fibroblast strains obtained from LPV-afflicted cases (fulfilling Friedrich's Criteria)^25 and age/race-matched (critical variables influencing LPV),^26, 27 pain-free controls were obtained. All subjects who contributed to the library were premenopausal, denied oral corticosteroids, non-steroidal, immunomodulatory, or anti-inflammatory medication use, and reported an absence of systemic/cutaneous inflammatory conditions at the time of sample collection. Mechanical pain thresholds were determined (via a method of limits) (0.5-5 N) using a Wagner algometer. Fibroblast identity was confirmed by microscopy and fibroblast markers (vimentin, collagen); only low passage (˜4) cells are used.
Synthesized, purified and commercially available SPMs from each known SPM class (E-series Resolvins, D-series Resolvins, Maresins, Protectins and Lipoxins) at low/nanomolar concentrations (1-100 nM) were tested. […] The inventors used one of two treatment regimens proven effective in vulvar fibroblasts and other cells: 1) overnight pre-treatment, followed by another treatment 30 min prior to stimulation with proinflammatory stimuli for 48 hr with a third dose of SPMs at 24 hr post-challenge, or 2) post-treatment with SPMs after a 30 min pre-treatment with inflammatory stimuli, followed by a booster dose 18 hr later. Both treatment regimens are of interest, as SPMs are active throughout the inflammatory process.^5-7 Even SPMs administered after LPV onset are likely to prevent the worsening or spread of LPV pain.
Next, SPMs from other classes (E series Resolvins and Protectins), as well as additional SPMs from classes containing members that are effective in reducing IL-6 and PGE2 production (e.g., Maresins) were investigated in similar screen. […] SPMs that were effective in reducing more than one proinflammatory mediator in at least 2 tests can be examined for further testing using a preclinical mouse model. […] These additional effective SPMs include Resolvin D3, Resolvin D4, Resolvin D5, Resolvin E1, Protectin D1, and Protectin DX. […]

Mouse vulvar tissue = experiment: Mouse vulvar explants (4 mm punch biopsy), IL-1β-stimulated PGE2 production; format: cell-based; conditions: pre-treatment 18 hours, then IL-1β 10 pg/ml 18 hours; range of doses, as low as 1 nM; FIG. 6
Procedure: FIG. 6 is a diagram showing that SPMs inhibit PGE2 production from mouse vulvar tissue. Mouse vulvar tissue (4 mm punch biopsies) was collected and bisected then pre-treated in culture medium with either Maresin 1 or RvD2 at indicated concentrations for 18 hours, followed by an additional 18 hours stimulation with IL-1β (10 pg/ml). Culture medium was collected and analyzed for PGE2 content. Mean+/−SEM; n=3 replicate cultures. ANOVA * p<0.05 vs. vehicle.
Although SPM structure and therapeutic efficacy is conserved across species,^5-7 inventors first confirmed that mouse vulvar tissues responded to SPM treatment in vitro by culturing mouse vulvar explants (4 mm punch biopsy). The explants were stimulated with IL-1, and then assays were carried to assess the ability of Maresin 1 or RvD2 to reduce PGE2 production under the established pre-treatment regimen.

CC/C=C\C/C=C\C[C@H](O)\C=C/C=C/C=C/[C@H](O)C/C=C\CCC(=O)O [Maresin 1, 7R,14S-docosa-4Z,8E,10E,12Z,16Z,19Z-hexaenoic acid]
prostaglandin E2 (PGE2) production (human vulvar fibroblasts; then IL-1β 10 pg/ml 48 hr, FIG. 5A): significantly reduced | interleukin-6 (IL-6) production (human vulvar fibroblasts; then bradykinin 100 nM 48 hr, FIG. 5B): significantly reduced | PGE2 responses following IL-1β treatment (Mouse vulvar tissue): significantly suppressed
